Assay results published in paper PMC12040169 (PLOS Biology, 2025).

Assay: in vitro
Conditions: human, hela cells, % viability

Compound | viability at 28.5 h, 10 µM [%]
O=C(c1ccc(F)cc1)N1C[C@@H]2C[C@H](C1)c1ccc(-c3cncnc3)c(=O)n1C2 [CBK289185] | 92.9
CC(=O)Nc1ccc(-c2ccc3n(c2=O)C[C@H]2C[C@@H]3CN(C(=O)C3CCCCC3)C2)cc1 [CBK289188] | 84.6
COc1ccc(-c2ccc(=O)n3c2[C@@H]2C[C@@H](CN(C(=O)NC4CCCCC4)C2)C3)cc1 [CBK289189] | 82.1
COc1ccccc1NC(=O)N1C[C@@H]2C[C@H](C1)c1c(-c3cccs3)ccc(=O)n1C2 [CBK289191] | 107
COc1ccccc1NC(=O)N1C[C@@H]2C[C@H](C1)c1c(-c3ccccc3F)ccc(=O)n1C2 [CBK289192] | 92.7
O=C(Nc1ccccc1)N1C[C@@H]2C[C@H](C1)c1c(-c3cccnc3)ccc(=O)n1C2 [CBK289193] | 92.3
O=C(c1cccs1)N1C[C@@H]2C[C@H](C1)c1c(-c3cncnc3)ccc(=O)n1C2 [CBK289194] | 90.7
N#Cc1ccc(C(=O)N2C[C@@H]3C[C@H](C2)c2c(-c4cccc(C#N)c4)ccc(=O)n2C3)cc1 [CBK289196] | 104
COc1ccccc1NC(=O)N1C[C@@H]2C[C@H](C1)c1c(-c3cccc(C#N)c3)ccc(=O)n1C2 [CBK289197] | 92.8
CC(=O)Nc1ccc(-c2ccc(=O)n3c2[C@@H]2C[C@@H](CN(C(=O)c4ccccc4)C2)C3)cc1 [CBK289198] | 89.4
CSCC(=O)N1C[C@@H]2C[C@H](C1)c1c(-c3ccc(NC(C)=O)cc3)ccc(=O)n1C2 [CBK289200] | 89.7
CC(=O)N1C[C@@H]2C[C@H](C1)c1ccc(NC(=O)c3ccc(C#N)cc3)c(=O)n1C2 [CBK289202] | 90.6
COc1ccc(CC(=O)Nc2ccc3n(c2=O)C[C@H]2C[C@@H]3CN(C(C)=O)C2)cc1 [CBK289203] | 99.1
CN(C)CC(=O)Nc1ccc2n(c1=O)C[C@H]1C[C@@H]2CN(Cc2ccccn2)C1 [CBK289206] | 107
CC1=C[C@@H](CNC(=O)c2ccccn2)[C@H](C(C)C)C[C@H]1CC(=O)N1CCCC1 [CBK289207] | 86.5
CC(=O)NC[C@@H]1C=C(C)[C@H](CC(=O)Nc2ccccn2)C[C@H]1C(C)C [CBK289209] | 92.3
CC1=C[C@@H](CNS(=O)(=O)c2cccs2)[C@H](C(C)C)C[C@H]1CC(=O)O [CBK289210] | 92.4
CC1=C[C@@H](CNC(=O)c2ccccc2)[C@H](C(C)C)C[C@H]1CC(=O)O [CBK289213] | 102
CC(=O)N1CCN(C(=O)C[C@@H]2C[C@@H](C(C)C)[C@H](CC#N)C=C2C)CC1 [CBK289214] | 103

Compound | viability at 28.5 h, 10 µM [%]
CC1=C[C@@H](CC#N)[C@H](C(C)C)C[C@H]1CC(=O)Nc1ccccn1 [CBK289215] | 87
COc1ccc(NC(=O)C[C@@H]2C[C@@H](C(C)C)[C@H](CC#N)C=C2C)cn1 [CBK289216] | 85.7
CC1=C[C@@H](CO)[C@H](C(C)C)C[C@H]1CC(=O)N1CCN(CCO)CC1 [CBK289217] | 85.7
CC1=C[C@@H](CO)[C@H](C(C)C)C[C@H]1CC(=O)NCc1cccnc1 [CBK289218] | 81.7
CC1=C[C@@H](CN2CCC(O)CC2)[C@H](C(C)C)C[C@H]1Cc1nnc(-c2ccccc2)o1 [CBK289220] | 97.2
CC(=O)N1CCN(C[C@@H]2C=C(C)[C@H](Cc3nnc(C(C)(C)C)o3)C[C@H]2C(C)C)CC1 [CBK289221] | 86
CC(=O)NC[C@@H]1C=C(C)[C@H](Cc2nnc(-c3cncn3C)o2)C[C@H]1C(C)C [CBK289225] | 107
CC1=C[C@@H](CNS(C)(=O)=O)[C@H](C(C)C)C[C@H]1Cc1nnc(-c2ccccc2F)o1 [CBK289226] | 116
COc1ccc(NC(=O)N[C@H]2C[C@H]3C(=O)N[C@H](Cc4ccccc4)C(=O)N3C2)cc1 [CBK289227] | 84.7
CC1(C)[C@H](Cc2cc(CO)on2)C[C@@H]1NS(=O)(=O)c1ccccc1 [CBK289234] | 86
CC1(C)[C@H](Cc2cc(CO)on2)C[C@@H]1NC(=O)C1CCCCC1 [CBK289235] | 93.1
O=C1CO[C@H]2CN(S(=O)(=O)c3ccccc3)C[C@H]2N1c1ccccc1 [CBK289236] | 93.7
c1ccc(-c2cc(CC3(NCc4cccnc4)COC3)no2)nc1 [CBK289238] | 83.5
c1ccc(-c2cc(CC3(NCc4cc5ccccc5o4)COC3)no2)nc1 [CBK289239] | 93.4
CC(=O)N[C@H]1C[C@@H](Cc2cc(CCO)on2)C1(C)C [CBK289243] | 99.7
COCC(=O)N[C@H]1C[C@@H](Cc2cc(C(C)(C)C)on2)C1(C)C [CBK289244] | 106
CC(=O)N1C[C@@H]2OCC(=O)N(Cc3ccccn3)[C@@H]2C1 [CBK289245] | 95.8
CC(C)C(=O)N[C@H]1C[C@@H](Cc2cc(CN3CCOCC3)on2)C1(C)C [CBK289248] | 99.8
CN1CCC(NC2(Cc3cc(-c4ccccn4)on3)COC2)CC1 [CBK289249] | 88.7
